Reference: patent publication US10807959B2, “WDR5-MLL1 inhibitors and modulators” (Vanderbilt University, priority 2018, dated 2020)

What was measured:
[1] = biological target: T1, WDR5 (Homo sapiens (Human), UniProt P61964); test: TR-FRET binding assay, displacement of 10mer-Thr-FAM probe from His-tagged WDR5; conditions: Inhibition of WDR5 by TR-FRET assay
Description: The LanthaScreenTM Elite Tb-anti-HIS Antibody from ThermoFisher Scientific was used for this purpose. […] The ratio of the 520 and 495 signals are then utilized to generate a dose-response curve to calculate an IC50 value. […] WDR[…] tag protein is used at 2 nM.

[2] = test system: MV4:11 cells; test: Cellular viability / anti-proliferative activity, CellTiter-Glo, 7 day protocol; assay type: cell-based, human; conditions: 168 h
Description: Anti proliferative activity using MLL-harboring cell lines. MV4:11 cells are grown in RPMI-1640 media supplemented with 10% FBS and 1% penicillin/streptomycin. Viability assays are performed by dispensing […] into each well of an opaque 384-well plate and adding compounds at the indicated concentrations in a final volume of 32 μL and a final concentration of DMSO of 0.1% for all samples. After a set incubation period, 7 day protocol, the viability of cells in each well is assessed using the CellTiter-Glo assay (Promega), read on a GloMax 96 Microplane Luminometer (Promega). Serial dilutions of each cell type are included in all assays to generate standard curves and determine assay measurements are taken within the dynamic range of the instrument. GI50 values are calculated based on three biological replicates, each with three technical replicates. Data are expressed as mean plus/minus S.E.M.

[3] = biological target: T1, WDR5; test: Fluorescence polarization anisotropy (FPA) competition assay, displacement of FITC-MLL or 10mer-Thr-FAM peptide; assay type: binding
From the text: The assay is run in 384-well format and is read on a BioTek Cytation. […] Replicate values are fit to a 4-parameter fit in XLFit to generate a single IC50 value for each compound that is then converted to a Ki value. Experiments are repeated to generate a 2nd, independent Ki value; values from the two experiments are averaged to produce the reported Ki value for the compound.

[4] = cellular proliferation of MV4:11 human cancer cell lines, 7 day
[5] = Inhibition of WDR5 by FPA assay
[6] = Table B2, WDR5 WIN-site binding affinity, values not less than 1 nM (FPA)
[7] = Table C2, WDR5 WIN-site binding affinity, values not less than 1 nM (FPA)

SMILES | Ki [3, 6] | other results
COc1cc(OC)cc(C(C)NC(=O)c2cc(CNC3=NCCN3)cc(-c3ccc(F)nc3C)c2)c1 (stereo not shown) [Example 7, 3-(((4,5-Dihydro-1H-imidazol-2-yl)amino)methyl)-N-(1-(3,5-dimethoxyphenyl)ethyl)-5-(6-fluoro-2-methylpyridin-3-yl)benzamide] | – | Ki [1]: 0.11 nM; GI50 [2, 4]: 280 nM
Cc1cc(-c2cc(CNC3=NCCN3)cc(C(=O)NCc3ccc(Cl)c(C)c3)c2)cc(C)n1 [Example 41, N-(4-chloro-3-methylbenzyl)-3-(((4,5-dihydro-1H-imidazol-2-yl)amino)methyl)-5-(2,6-dimethylpyridin-4-yl)benzamide] | – | Ki [1]: < 0.1 nM; GI50 [2, 4]: 170 nM
Cc1cc(CNC(=O)c2cc(CNC3=NCCC3)cc(-c3ccc(F)cc3C)c2)ccc1Cl [Example 64, N-(4-Chloro-3-methylbenzyl)-5-(((3,4-dihydro-2H-pyrrol-5-yl)amino)methyl)-4′-fluoro-2′-methyl-[1,1′-biphenyl]-3-carboxamide] | – | GI50 [2, 4]: 280 nM
O=C(NCc1ccc(Cl)c(Cl)c1)c1cc(Cn2ccnc2)cc(-c2ccc(F)cc2Cl)c1 [Example 116, 5-((1H-Imidazol-1-yl)methyl)-2′-chloro-N-(3,4-dichlorobenzyl)-4′-fluoro-[1,1′-biphenyl]-3-carboxamide] | – | GI50 [2, 4]: 3800 nM
Cc1nc(F)ccc1-c1cc(Cn2ccnc2)cc(C(=O)NC(C2CC2)C2CC2)c1 [Example 133, 3-((1H-imidazol-1-yl)methyl)-N-(dicyclopropylmethyl)-5-(6-fluoro-2-methylpyridin-3-yl)benzamide] | – | Ki [3, 5]: 3.5 nM; Ki [1]: 4.6 nM
Cc1ccnc(C(NC(=O)c2cc(Cn3ccnc3)cc(-c3ccc(F)nc3C)c2)C2CC2)c1 (stereo not shown) [Example 137, 3-((1H-Imidazol-1-yl)methyl)-N-(cyclopropyl(4-methylpyridin-2-yl)methyl)-5-(6-fluoro-2-methylpyridin-3-yl)benzamide] | – | Ki [3, 5]: < 1 nM; Ki [1]: 2 nM
Cc1ccnc(C(NC(=O)c2cc(Cn3ccnc3)cc(-c3ccc(F)cc3Cl)n2)C2CC2)c1 (stereo not shown) [Example 150, 4-((1H-Imidazol-1-yl)methyl)-6-(2-chloro-4-fluorophenyl)-N-(cyclopropyl(4-methylpyridin-2-yl)methyl)picolinamide] | – | Ki [3, 5]: 1.1 nM; Ki [1]: 5.71 nM
Cc1cccc(CNC(=O)c2cc(Cn3ccnc3)cc(-c3ccc(F)cc3Cl)n2)n1 [Example 151, 4-((1H-Imidazol-1-yl)methyl)-6-(2-chloro-4-fluorophenyl)-N-((6-methylpyridin-2-yl)methyl)picolinamide] | – | Ki [3, 5]: 8.7 nM; Ki [1]: 32 nM
Cc1cc(F)ccc1-c1cc(Cn2ccnc2C)cc(C(=O)NCc2ccc(Cl)c(Cl)c2)n1 [Example 156, N-(3,4-dichlorobenzyl)-6-(4-fluoro-2-methylphenyl)-4-((2-methyl-1H-imidazol-1-yl)methyl)picolinamide] | – | GI50 [2, 4]: 630 nM
Cc1nc(F)ccc1-c1cc(Cn2ccnc2C)cc(C(=O)NCc2ccc(Cl)c(Cl)c2)n1 [Example 164, N-(3,4-dichlorobenzyl)-6′-fluoro-2′-methyl-4-((2-methyl-1H-imidazol-1-yl)methyl)-[2,3′-bipyridine]-6-carboxamide] | – | GI50 [2, 4]: 1100 nM
Cc1cnccc1-c1cc(Cn2ccnc2C)cc(C(=O)NCc2ccc(Cl)c(Cl)c2)n1 [Example 166, N-(3,4-Dichlorobenzyl)-3′-methyl-4-((2-methyl-1H-imidazol-1-yl)methyl)-[2,4′-bipyridine]-6-carboxamide] | – | GI50 [2, 4]: 240 nM
COc1cc(CNC(=O)c2ccc(F)c(CNC3=NCCN3)c2)cc(OC)c1 [Example B15, 3-(((4,5-dihydro-1H-imidazol-2-yl)amino)methyl)-N-(3,5-dimethoxybenzyl)-4-fluorobenzamide] | – | GI50 ([2]; Homo sapiens, MV4:11 leukemia cells after a 7 day incubation period): 893 nM
COc1ccc(CNC(=O)c2cc(F)c(F)c(CNC3=NCCN3)c2)cc1Cl [Example B32] | 4.51 nM | –
COc1ccnc(CNC(=O)c2cc(F)c(F)c(CNC3=NCCN3)c2)c1 [Example B34] | 12 nM | –
COc1cc(OC)cc(C(C)NC(=O)c2cc(F)c(F)c(CNC3=NCCN3)c2)c1 (stereo not shown) [Example B35] | 4.22 nM | –
COc1cc(CNC(=O)c2cc(CNC3=NCCN3)ccc2F)cc(OC)c1 [Example B37] | 8.71 nM | –

SMILES | Ki [3, 6] | other results
COc1cc(CNC(=O)c2ccc(OC)c(CNC3=NCCN3)c2)ccc1Cl [Example B38] | 24.5 nM | –
COc1ccc(C(=O)NCc2cc(Cl)ccn2)cc1CNC1=NCCN1 [Example B39] | 1.39 nM | –
COc1ccnc(CNC(=O)c2ccc(OC)c(CNC3=NCCN3)c2)c1 [Example B40] | 7.21 nM | –
COc1ccc(C(=O)NCc2ccc(Cl)c(F)c2)cc1CNC1=NCCN1 [Example B41] | 1.76 nM | –
COc1ccc(C(=O)NCc2ccc(Cl)c(C)c2)cc1CNC1=NCCN1 [Example B42] | 1.51 nM | –
COc1cc(OC)cc(C(C)NC(=O)c2ccc(OC)c(CNC3=NCCN3)c2)c1 (stereo not shown) [Example B43] | 1.82 nM | –
COc1ccc(C(=O)NCc2ccc(Cl)cn2)cc1CNC1=NCCN1 [Example B44] | 20.3 nM | –
Cc1cc(C)nc(CNC(=O)c2ccc(F)c(CNC3=NCCN3)c2)n1 [Example B45] | 11.3 nM | –
COc1cc(OC)cc(C(C)NC(=O)c2cc(CNC3=NCCN3)ccn2)c1 (stereo not shown) [Example C20, 4-(((4,5-dihydro-1H-imidazol-2-yl)amino)methyl)-N-(1-(3,5-dimethoxyphenyl)ethyl)picolinamide] | – | Ki [3, 7]: 30.3 nM
COc1cc(OC)cc(C(C)NC(=O)c2cc(CNC3=NCCC3)ccn2)c1 (stereo not shown) [Example C21, 4-(((3,4-dihydro-2H-pyrrol-5-yl)amino)methyl)-N-(1-(3,5-dimethoxyphenyl)ethyl)picolinamide] | – | Ki [3, 7]: 33 nM
Cc1cc(CNC(=O)c2cc(CNC3=NCCC3)cc(-c3ccc(F)cc3C)n2)ccc1Cl [Example C23] | – | Ki [3, 7]: 3.13 nM
COc1cc(CNC(=O)c2cc(CNC3=NCCC3)cc(-c3ccc(F)cc3C)n2)cc(OC)c1 [Example C24] | – | Ki [3, 7]: 11.7 nM
COc1cc(CNC(=O)c2cc(CNC3=NCCC3)cc(-c3ccc(F)cc3C(F)(F)F)n2)cc(OC)c1 [Example C27] | – | Ki [3, 7]: 1.58 nM
Cc1cnc(C(C)NC(=O)c2cc(CNC3=NCCC3)cc(-c3ccc(F)cc3C(F)(F)F)n2)cc1Cl (stereo not shown) [Example C32] | – | Ki [3, 7]: 1.54 nM
COc1cc(OC)cc(C(C)NC(=O)c2ccnc(CNC3=NCCN3)c2)c1 (stereo not shown) [Example C34, 2-(((4,5-dihydro-1H-imidazol-2-yl)amino)methyl)-N-(1-(3,5-dimethoxyphenyl)ethyl)isonicotinamide] | – | Ki [3, 7]: 32.5 nM
COc1cc(OC)cc(C(C)NC(=O)c2ccnc(CNC3=NCCC3)c2)c1 (stereo not shown) [Example C35, 2-(((3,4-dihydro-2H-pyrrol-5-yl)amino)methyl)-N-(1-(3,5-dimethoxyphenyl)ethyl)isonicotinamide] | – | Ki [3, 7]: 44.1 nM

The next lines start with results.

Ki [3, 6] | SMILES | other results
3.96 nM | Cc1cnc(CNC(=O)c2ccc(F)c(CNC3=NCCN3)c2)cn1 [Example B46] | –
2.17 nM | Cc1ccnc(C(NC(=O)c2cc(CNC3=NCCN3)c(F)cc2F)C2CC2)c1 (stereo not shown) [Example B48] | –
1.06 nM | COc1cc(OC)cc(C(C)NC(=O)c2cc(CNC3=NCCN3)c(F)cc2F)c1 (stereo not shown) [Example B49] | –
12.4 nM | CCOc1ccc(C(=O)NC(c2cc(C)ccn2)C2CC2)cc1CNC1=NCCN1 (stereo not shown) [Example B50] | –
9.77 nM | CCOc1ccc(C(=O)NC(C)c2cc(OC)cc(OC)c2)cc1CNC1=NCCN1 (stereo not shown) [Example B51, 3-(((4,5-dihydro-1H-imidazol-2-yl)amino)methyl)-N-(1-(3,5-dimethoxyphenyl)ethyl)-4-ethoxybenzamides] | –
33 nM | COc1cc(OC)cc(C(C)NC(=O)c2ccc(OC(C)C)c(CNC3=NCCN3)c2)c1 (stereo not shown) [Example B52, 3-(((4,5-dihydro-1H-imidazol-2-yl)amino)methyl)-N-(1-(3,5-dimethoxyphenyl)ethyl)-4-isopropoxybenzamide] | –
40.9 nM | CC(C)Oc1ccc(C(=O)NCc2ccc(Cl)c(Cl)c2)cc1CNC1=NCCN1 [Example B53] | –
1.12 nM | O=C(NCc1ccc(Cl)c(Cl)c1)c1cc(CNC2=NCCN2)cc(-c2ccc(F)cc2Cl)c1 [Example B54] | –
1.27 nM | Cc1cc(C)cc(CNC(=O)c2cc(CNC3=NCCN3)cc(-c3ccc(F)cc3Cl)c2)c1 [Example B55] | –
2.06 nM | Cc1cc(CNC(=O)c2cc(CNC3=NCCN3)cc(-c3ccc(F)cc3Cl)c2)ccc1Cl [Example B58] | –
4.39 nM | Cc1ccncc1-c1cc(CNC2=NCCN2)cc(C(=O)NCc2cccc(F)n2)c1 [Example B89] | –
6.1 nM | Cc1cc(-c2cc(CNC3=NCCN3)cc(C(=O)NCc3cccc(F)n3)c2)ccn1 [Example B95] | –
> 33 nM | COc1cc(OC)cc(C(C)NC(=O)c2ccc(OC(C)C)c(CNC3=NCCC3)c2)c1 (stereo not shown) [Example B124] | –
> 33 nM | CC(C)Oc1ccc(C(=O)NCc2ccc(Cl)c(Cl)c2)cc1CNC1=NCCC1 [Example B125] | –
